Test results taken from the NIST ThermoML archive (doi:10.1016/j.fluid.2019.01.028).
± gives the expanded uncertainty stated by the source.

Test: activity coefficient (dimensionless); of the first substance listed, at infinite dilution; xn = mol fraction of the nth substance listed
Conditions: Liquid, Chromatography, x1 = 0

Question: With `Cc1ccco1` [2-methylfuran] + CCCC[n+]1ccn(C)c1.O=S(=O)([N-]S(=O)(=O)C(F)(F)F)C(F)(F)F as the compound, how does the activity coefficient (313 K) read?
Answer: Its activity coefficient is 1.1 ± 0.09.

Question: And the activity coefficient (323 K)?
Answer: The activity coefficient was 1.12 ± 0.1.

Question: And the activity coefficient (333 K)?
Answer: Its activity coefficient is 1.15 ± 0.1.

Question: What about the activity coefficient (343 K) of the same compound?
Answer: Its activity coefficient is 1.17 ± 0.1.

Question: What about the activity coefficient (353 K) of the same compound?
Answer: Its activity coefficient is 1.18 ± 0.1.

Question: With `CO` [methanol] + CCCC[n+]1ccn(C)c1.O=S(=O)([N-]S(=O)(=O)C(F)(F)F)C(F)(F)F as the compound, how does the activity coefficient (313 K) read?
Answer: The activity coefficient was 1.26 ± 0.11.

Question: What about the activity coefficient (323 K) of the same compound?
Answer: Its activity coefficient is 1.21 ± 0.1.

Question: What about the activity coefficient (333 K) of the same compound?
Answer: Its activity coefficient is 1.09 ± 0.09.

Question: What about the activity coefficient (343 K) of the same compound?
Answer: Its activity coefficient is 1.06 ± 0.09.

Question: What about the activity coefficient (353 K) of the same compound?
Answer: The activity coefficient was 1.03 ± 0.09.

Question: What does the source list for `Cc1ccc(C)o1` [2,5-dimethylfuran] + CCCCn1cc[n+](C)c1.[Cl-]?
Answer: activity coefficient (313 K): 9.51 ± 0.87; activity coefficient (323 K): 9.6 ± 0.88; activity coefficient (333 K): 9.61 ± 0.88; activity coefficient (343 K): 9.64 ± 0.89; activity coefficient (353 K): 9.76 ± 0.9

Question: Which results are given for `c1ccccc1` [benzene] + CCCCn1cc[n+](C)c1.[Cl-]?
Answer: activity coefficient (313 K): 4.09 ± 0.38; activity coefficient (323 K): 4.14 ± 0.38; activity coefficient (333 K): 4.15 ± 0.38; activity coefficient (343 K): 4.15 ± 0.38; activity coefficient (353 K): 4.12 ± 0.38

Question: Which results are given for `c1ccoc1` [furan] + CCCCn1cc[n+](C)c1.[Cl-]?
Answer: activity coefficient (313 K): 1.41 ± 0.13; activity coefficient (323 K): 1.48 ± 0.13; activity coefficient (333 K): 1.56 ± 0.14; activity coefficient (343 K): 1.66 ± 0.15; activity coefficient (353 K): 1.75 ± 0.16

Question: Which results are given for `c1ccccc1` [benzene] + CCCC[n+]1ccn(C)c1.O=S(=O)([N-]S(=O)(=O)C(F)(F)F)C(F)(F)F?
Answer: activity coefficient (313 K): 0.938 ± 0.08; activity coefficient (323 K): 0.957 ± 0.081; activity coefficient (333 K): 0.975 ± 0.083; activity coefficient (343 K): 0.99 ± 0.084; activity coefficient (353 K): 1.01 ± 0.09

Question: Which activity coefficient (313 K) does the source give for `CCc1ccccc1` [ethylbenzene] + CCCC[n+]1ccn(C)c1.O=S(=O)([N-]S(=O)(=O)C(F)(F)F)C(F)(F)F here?
Answer: Its activity coefficient is 1.98 ± 0.18.

Question: And the activity coefficient (323 K)?
Answer: Its activity coefficient is 2.01 ± 0.18.

Question: And the activity coefficient (333 K)?
Answer: Its activity coefficient is 2.01 ± 0.18.

Question: And the activity coefficient (343 K)?
Answer: The activity coefficient was 2.05 ± 0.18.

Question: And the activity coefficient (353 K)?
Answer: Its activity coefficient is 2.07 ± 0.18.

Question: With `Cc1ccccc1` [toluene] + CCCCn1cc[n+](C)c1.[Cl-] as the compound, how does the activity coefficient (313 K) read?
Answer: Its activity coefficient is 7.19 ± 0.66.

Question: What about the activity coefficient (323 K) of the same compound?
Answer: The activity coefficient was 7.24 ± 0.67.

Question: What about the activity coefficient (333 K) of the same compound?
Answer: Its activity coefficient is 7.23 ± 0.66.

Question: And the activity coefficient (343 K)?
Answer: Its activity coefficient is 7.3 ± 0.67.

Question: What about the activity coefficient (353 K) of the same compound?
Answer: The activity coefficient was 7.38 ± 0.68.

Question: What does the source list for `CCc1ccco1` [2-ethylfuran] + CCCCn1cc[n+](C)c1.[Cl-]?
Answer: activity coefficient (313 K): 5.85 ± 0.54; activity coefficient (323 K): 6 ± 0.55; activity coefficient (333 K): 6.12 ± 0.56; activity coefficient (343 K): 6.23 ± 0.57; activity coefficient (353 K): 6.41 ± 0.59

Question: Which activity coefficient (313 K) does the source give for `Clc1ccccc1` [chlorobenzene] + CCCCn1cc[n+](C)c1.[Cl-] here?
Answer: Its activity coefficient is 3.41 ± 0.31.

Question: And the activity coefficient (323 K)?
Answer: The activity coefficient was 3.58 ± 0.33.

Question: What about the activity coefficient (333 K) of the same compound?
Answer: Its activity coefficient is 3.71 ± 0.34.

Question: And the activity coefficient (343 K)?
Answer: Its activity coefficient is 3.82 ± 0.35.

Question: And the activity coefficient (353 K)?
Answer: Its activity coefficient is 3.96 ± 0.36.

Question: What does the source list for `CCO` [ethanol] + CCCCn1cc[n+](C)c1.[Cl-]?
Answer: activity coefficient (323 K): 0.208 ± 0.032; activity coefficient (333 K): 0.213 ± 0.032; activity coefficient (343 K): 0.22 ± 0.032; activity coefficient (353 K): 0.229 ± 0.033

Question: Which activity coefficient (313 K) does the source give for `CCCO` [propan-1-ol] + CCCC[n+]1ccn(C)c1.O=S(=O)([N-]S(=O)(=O)C(F)(F)F)C(F)(F)F here?
Answer: The activity coefficient was 1.94 ± 0.17.

Question: What about the activity coefficient (323 K) of the same compound?
Answer: Its activity coefficient is 1.77 ± 0.16.

Question: And the activity coefficient (333 K)?
Answer: The activity coefficient was 1.63 ± 0.14.

Question: And the activity coefficient (343 K)?
Answer: The activity coefficient was 1.51 ± 0.13.

Question: And the activity coefficient (353 K)?
Answer: Its activity coefficient is 1.4 ± 0.12.

Question: What does the source list for `CCCO` [propan-1-ol] + CCCCn1cc[n+](C)c1.[Cl-]?
Answer: activity coefficient (333 K): 0.286 ± 0.035; activity coefficient (343 K): 0.292 ± 0.036; activity coefficient (353 K): 0.301 ± 0.036

Question: Which results are given for `CO` [methanol] + CCCCn1cc[n+](C)c1.[Cl-]?
Answer: activity coefficient (323 K): 0.1 ± 0.03; activity coefficient (333 K): 0.104 ± 0.03; activity coefficient (343 K): 0.109 ± 0.03; activity coefficient (353 K): 0.115 ± 0.03

Question: For `CCc1ccccc1` [ethylbenzene] + CCCCn1cc[n+](C)c1.[Cl-], which activity coefficient (313 K) is on record?
Answer: Its activity coefficient is 12.5 ± 1.2.

Question: And the activity coefficient (323 K)?
Answer: Its activity coefficient is 12.5 ± 1.2.

Question: And the activity coefficient (333 K)?
Answer: Its activity coefficient is 12.4 ± 1.1.

Question: And the activity coefficient (343 K)?
Answer: Its activity coefficient is 12.4 ± 1.1.

Question: What about the activity coefficient (353 K) of the same compound?
Answer: Its activity coefficient is 12.4 ± 1.1.

Question: For `Cc1ccc(C)o1` [2,5-dimethylfuran] + CCCC[n+]1ccn(C)c1.O=S(=O)([N-]S(=O)(=O)C(F)(F)F)C(F)(F)F, which activity coefficient (313 K) is on record?
Answer: Its activity coefficient is 1.83 ± 0.16.

Question: What about the activity coefficient (323 K) of the same compound?
Answer: Its activity coefficient is 1.85 ± 0.16.

Question: And the activity coefficient (333 K)?
Answer: The activity coefficient was 1.86 ± 0.16.

Question: What about the activity coefficient (343 K) of the same compound?
Answer: Its activity coefficient is 1.88 ± 0.17.

Question: What about the activity coefficient (353 K) of the same compound?
Answer: Its activity coefficient is 1.88 ± 0.17.

Question: Which activity coefficient (313 K) does the source give for `CCO` [ethanol] + CCCC[n+]1ccn(C)c1.O=S(=O)([N-]S(=O)(=O)C(F)(F)F)C(F)(F)F here?
Answer: Its activity coefficient is 1.6 ± 0.14.

Question: And the activity coefficient (323 K)?
Answer: The activity coefficient was 1.48 ± 0.13.

Question: What about the activity coefficient (333 K) of the same compound?
Answer: The activity coefficient was 1.37 ± 0.12.

Question: What about the activity coefficient (343 K) of the same compound?
Answer: Its activity coefficient is 1.28 ± 0.11.

Question: And the activity coefficient (353 K)?
Answer: Its activity coefficient is 1.2 ± 0.1.

Question: Which activity coefficient (313 K) does the source give for `CCc1ccco1` [2-ethylfuran] + CCCC[n+]1ccn(C)c1.O=S(=O)([N-]S(=O)(=O)C(F)(F)F)C(F)(F)F here?
Answer: Its activity coefficient is 1.47 ± 0.13.

Question: And the activity coefficient (323 K)?
Answer: The activity coefficient was 1.49 ± 0.13.

Question: What about the activity coefficient (333 K) of the same compound?
Answer: The activity coefficient was 1.51 ± 0.13.

Question: And the activity coefficient (343 K)?
Answer: Its activity coefficient is 1.52 ± 0.13.

Question: And the activity coefficient (353 K)?
Answer: Its activity coefficient is 1.54 ± 0.13.

Question: What does the source list for `Cc1ccccc1` [toluene] + CCCC[n+]1ccn(C)c1.O=S(=O)([N-]S(=O)(=O)C(F)(F)F)C(F)(F)F?
Answer: activity coefficient (313 K): 1.31 ± 0.11; activity coefficient (323 K): 1.34 ± 0.12; activity coefficient (333 K): 1.37 ± 0.12; activity coefficient (343 K): 1.39 ± 0.12; activity coefficient (353 K): 1.42 ± 0.12

Question: Which activity coefficient (313 K) does the source give for `c1ccoc1` [furan] + CCCC[n+]1ccn(C)c1.O=S(=O)([N-]S(=O)(=O)C(F)(F)F)C(F)(F)F here?
Answer: The activity coefficient was 0.678 ± 0.06.

Question: And the activity coefficient (323 K)?
Answer: Its activity coefficient is 0.695 ± 0.061.

Question: What about the activity coefficient (333 K) of the same compound?
Answer: The activity coefficient was 0.711 ± 0.063.

Question: And the activity coefficient (343 K)?
Answer: Its activity coefficient is 0.727 ± 0.064.

Question: And the activity coefficient (353 K)?
Answer: The activity coefficient was 0.739 ± 0.065.

Question: Which activity coefficient (313 K) does the source give for `Clc1ccccc1` [chlorobenzene] + CCCC[n+]1ccn(C)c1.O=S(=O)([N-]S(=O)(=O)C(F)(F)F)C(F)(F)F here?
Answer: Its activity coefficient is 1.5 ± 0.13.

Question: What about the activity coefficient (323 K) of the same compound?
Answer: Its activity coefficient is 1.52 ± 0.13.

Question: And the activity coefficient (333 K)?
Answer: The activity coefficient was 1.53 ± 0.13.

Question: What about the activity coefficient (343 K) of the same compound?
Answer: Its activity coefficient is 1.54 ± 0.13.

Question: What about the activity coefficient (353 K) of the same compound?
Answer: The activity coefficient was 1.54 ± 0.13.

Question: What does the source list for `Cc1ccco1` [2-methylfuran] + CCCCn1cc[n+](C)c1.[Cl-]?
Answer: activity coefficient (313 K): 3.61 ± 0.33; activity coefficient (323 K): 3.76 ± 0.35; activity coefficient (333 K): 3.84 ± 0.35; activity coefficient (343 K): 3.96 ± 0.36; activity coefficient (353 K): 4.08 ± 0.37
